From ChEMBL document CHEMBL5380873, “Discovery of Potent Tetrazole Free Fatty Acid Receptor 2 Antagonists” (J Med Chem, 2023)
One block for each compound: values may come before it. Calls of active or inactive are those of the source. The calls are words filed in the database; no cut-off is given here.

How the values were obtained:
[1] = molecular target: T1, Free fatty acid receptor 2 (Homo sapiens) (UniProt O15552); assay: Potency index, ratio of CATPB pIC50 to test compound pIC50 for antagonist activity at human FFA2
T1 sequence (whole entry): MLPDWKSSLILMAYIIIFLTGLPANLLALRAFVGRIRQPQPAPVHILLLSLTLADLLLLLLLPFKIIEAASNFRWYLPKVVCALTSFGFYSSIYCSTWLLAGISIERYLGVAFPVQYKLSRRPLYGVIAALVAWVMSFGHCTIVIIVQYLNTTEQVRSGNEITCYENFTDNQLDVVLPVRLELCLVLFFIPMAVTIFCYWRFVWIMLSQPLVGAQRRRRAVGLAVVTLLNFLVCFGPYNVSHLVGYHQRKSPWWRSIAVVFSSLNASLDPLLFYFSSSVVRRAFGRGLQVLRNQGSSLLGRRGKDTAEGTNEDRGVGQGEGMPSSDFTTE

[2] = molecular target: T1, Free fatty acid receptor 2 (Homo sapiens); assay: (§1) Antagonist activity at human FFA2 expressed in Flp-In-T-REx-293 cells co-expressing eYFP assessed as inhibition of [35S]GTPgammaS incorporation preincubated for 15 mins followed by [35S]GTPgammaS addition and measured after 60 min by liquid scintillation spectroscopic analysis; format: functional, cell-based; conditions: time 75.0 min
[3] = molecular target: T1, Free fatty acid receptor 2 (Homo sapiens); assay: (§2) Antagonist activity at human FFA2 expressed in Flp-In-T-REx-293 cells co-expressing eYFP assessed as inhibition of propionate-induced cAMP accumulation preincubated with compound for 20 mins followed by propionate addition and measured after 25 mins in the presence of forskolin by TR-FRET analysis; format: functional, cell-based; conditions: time 45.0 min
[4] = system: Neutrophil; assay: (§3) Inhibition of propionate-induced respiratory burst in human peripheral neutrophil assessed as effect on luminol-induced chemiluminescence at 0.4 to 1 uM preincubated with compound for 30 mins followed by propionate addition and measured immediately by microplate reader based analysis; format: functional, cell-based; conditions: dose 0.4-1 µM
[5] = molecular target: T2, Free fatty acid receptor 3 (Homo sapiens) (UniProt O14843); assay: as §2, with “FFA3” for “FFA2”, “accumulation at 10 uM” for “accumulation”; format: functional, cell-based; conditions: time 45.0 min
T2 sequence (whole entry): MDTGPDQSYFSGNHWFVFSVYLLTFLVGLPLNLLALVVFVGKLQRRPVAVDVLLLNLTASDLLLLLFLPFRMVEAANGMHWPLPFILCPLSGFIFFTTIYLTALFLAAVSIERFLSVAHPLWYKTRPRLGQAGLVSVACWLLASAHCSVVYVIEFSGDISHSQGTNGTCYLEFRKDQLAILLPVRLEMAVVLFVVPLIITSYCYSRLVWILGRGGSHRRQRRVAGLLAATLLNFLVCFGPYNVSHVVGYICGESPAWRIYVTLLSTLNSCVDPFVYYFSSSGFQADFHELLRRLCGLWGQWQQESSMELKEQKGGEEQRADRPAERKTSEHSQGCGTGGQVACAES

[6] = as §3, with “luminol-amplifies” for “luminol-induced”, “chemiluminescence by measuring fold change” for “chemiluminescence”, “analysis relative to CATPB” for “analysis”; format: functional; conditions: dose 0.4-1 µM, 0.5 h
[7] = Chemical stability of compound in PBS buffer at pH 7.4 measured after 10 days by HPLC analysis; format: physicochemical; conditions: time 10 day, read-out: Stability
[8] = system: Neutrophil; assay: Inhibition of fMLP-induced respiratory burst in human peripheral neutrophil at 10 uM; format: functional, cell-based
[9] = system: Neutrophil; assay: Inhibition of propionate-induced cell migration in human peripheral neutrophil at 0.4 to 1 uM preincubated with compound for 30 mins followed by propionate addition and measured after 1 hrs by ATPlite luminescence assay; format: functional, cell-based; conditions: dose 0.4-1 µM, time 90.0 min
[10] = system: Neutrophil; assay: Inhibition of fMLP-induced cell migration in human peripheral neutrophil at 10 uM; format: functional, cell-based
[11] = molecular target: T3, Free fatty acid receptor 2 (Homo sapiens, UniProt O15552); assay: as §1; format: functional, cell-based
T3 sequence (O15552 whole entry): T1 sequence (whole entry)

[12] = molecular target: T3, Free fatty acid receptor 2; assay: as §2; format: functional, cell-based
[13] = molecular target: T3, Free fatty acid receptor 2; assay: Inverse agonist activity at human GPR43 expressed in Glosensor cells assessed as increase in forskolin-induced cAMP level preincubated with compound for 5 mins followed by forskolin addition and measured after 15 mins by luminescence based analysis; format: functional, cell-based

SMILES: Cc1cccc(CC(=O)N[C@@H](Cc2ccc(C(F)(F)F)cc2)Cc2nnn[nH]2)c1
Ratio pIC50 [1]: > 10

SMILES: COc1cccc(CC(=O)N[C@@H](Cc2ccc(C(F)(F)F)cc2)Cc2nnn[nH]2)c1
inhibition [4]: Active | Activity [5]: inactive | fold change (FC) [6]: 8 | remaining at 240 h [7]: > 95% | inhibition [8]: inactive | inhibition [9]: Active | inhibition [10]: inactive

SMILES: N#Cc1cccc(CC(=O)N[C@@H](Cc2ccc(C(F)(F)F)cc2)Cc2nnn[nH]2)c1
pIC50 [11]: > 5 | pIC50 [12]: > 5

Next, values leading:

Activity [2]: inactive | Activity [3]: inactive
SMILES: O=C(Cc1cccc(-c2nnn[nH]2)c1)N[C@@H](Cc1ccc(C(F)(F)F)cc1)Cc1nnn[nH]1

IC50 [13]: ~10 µM
SMILES: CC1=C(C(=O)Nc2cc(C)cc(C)c2)C(c2ccc(N(C)C)cc2)NC(=O)N1 (stereo unspecified)

remaining at 240 h [7]: > 95%
SMILES: O=C(Cc1cncc(Br)c1)N[C@@H](Cc1ccc(C(F)(F)F)cc1)Cc1nnn[nH]1

Activity [2]: inactive | Activity [3]: inactive
SMILES: O=C(Cc1cnc[nH]1)N[C@@H](Cc1ccc(C(F)(F)F)cc1)Cc1nnn[nH]1
